Results published in patent publication US20060240424A1, “Regulation of human p2y15 g protein-coupled receptor” (priority 2002, published 2006).
pEC50, pKd, pKi: −log10 of the molar value.

Key:
P2Y15 [1] = biological target: T1, P2Y15 (Homo sapiens, UniProt Q96P68); test: Calcium mobilization assay in presence of adenosine receptor antagonists; format: cell-based; design: expressed in transfected cells; details: for block of calcium mobilization induced by AMP and adenosine: FIG. 4, dose-dependent
Method: (§1) Ligand screening was performed in a Ca^2+ flux assay as follows. Stably transfected P2Y15 GPCR-expressing cells were seeded into 96-well plates and incubated overnight at 37° C. in a tissue culture incubator. The culture medium was aspirated and replaced with […] of loading buffer containing 0.1% BSA, 20 mM HEPES, 1 mM probenecid, 0.01% pluronic F127, and 1 µM Fluo-3-AM (Molecular Probes, Eugene, Oreg.) in HBSS, and incubated for 1 hour at room temperature. The cells were then washed gently 3 times with wash buffer containing 0.1% BSA, 20 mM HEPES, 1 mM probenecid in HBSS. The washed cells were placed in an FDSS6000 functional drug screening system (Hamamatsu Photonics, Hamamatsu, Japan) and changes in cellular fluorescence were measured after adding serial dilutions of potential ligands. A panel of about 130 potential ligands was assembled by selecting known ligands of the GPCRs most closely related to P2Y15 GPCR as well as several naturally occurring chemical relatives of the ligands. The library included various bioactive lipids, eicosanoids, peptides, cannabinoids, chemokines, nucleosides, nucleotides and chemically related substances. The ligands were genereally purchased from either Sigma or R&D Systems.

[2] = test system: nontransfected HEK293 cells; test: Ca2+ flux assay in nontransfected HEK293 cells (control); format: cell-based, human; details: for calcium mobilization in response to nucleotide: both stable transfectants and nontransfected cells (endogenous P2Y1 and P2Y2)
[3] = test system: nontransfected HEK293 cells; test: Competitive binding assay on nontransfected HEK293 cells; design: species or system human; details: for antagonism of ^3H-AMP binding to nontransfected HEK293 cells: 10 μM ^3H-AMP
Method: Competitive binding experiments were carried out as follows: 10^5 cells per well in 96-well plates were washed twice for 1 h with DMEM medium. Then wheatgerm agglutinin SPA beads (Amersham) at 1 mg/well were added, followed 1 h later by 10 μM [^3H]-Adenosine or 10 μM [^3H]-AMP (Amersham), and increasing concentrations of unlabeled ligand in a constant volume of HBS: 10 mM Hepes, 130 mM NaCl, 5 mM KCl, 1 mM MgCl2, 1 mM CaCl2 and 1 g/l glucose (6 μl/well)). After incubating at 4° C. for 16 h, the plates were centrifuged for 10 min at 1500 rpm and then scintillation measured on a TopCount automated scintillation counter. Ki values were determined by non-linear regression using the program Prism (Graph Pad).

[4] = test system: nontransfected HEK293 cells; test: Cyclic AMP production assay in nontransfected HEK293 cells; format: cell-based, human; details: 10 μM forskolin
Method: (§2) The cells were then lysed and the cAMP produced was measured by a cAMP-specific ELISA. Concentrations of cAMP produced were calculated by comparing against cAMP standards measured simultaneously.

P2Y15 [5] = biological target: T1, P2Y15; test: Cyclic AMP production assay in P2Y15-HEK293 stable transfectants; format: cell-based; design: expressed in transfected cells; details: for effect of pertussis toxin pretreatment on cyclic AMP production in response to ligand: pretreatment two hours with 1 μM pertussis toxin; for cyclic AMP response to ligand alone: without forskolin
Method: as §2

P2Y15 [6] = biological target: T1, P2Y15; test: Competitive binding assay on P2Y15 transfectants; design: expressed in transfected cells; details: 10 μM ^3H-adenosine; FIG. 3D; read-out: Ki for blocking binding of ^3H-adenosine to transfectants
Method: Competitive binding experiments were carried out as follows: 10^5 cells per well in 96-well plates were washed twice for 1 h with DMEM medium. […] After incubating at 4° C. for 16 h, the plates were centrifuged for 10 min at 1500 rpm and then scintillation measured on a TopCount automated scintillation counter. Ki values were determined by non-linear regression using the program Prism (Graph Pad).

P2Y15 [7] = biological target: T1, P2Y15; test: Receptor binding assay (saturation binding) on P2Y15 stable transfectants; details: whole cells, 4° C., 16 h; radiolabelled ligand
Method: 10^5 cells per well in 96-well plates were washed twice for 1 h with DMEM medium. […] After incubating at 4° C. for 16 h, the plates were centrifuged for 10 min at 1500 rpm and then scintillation measured on a TopCount automated scintillation counter. Binding of [^32P]-AMP was carried out under the same conditions except that instead of using SPA beads, at the end of the incubation, cells were washed three times by vacuum filtration and 100 μl scintillation fluid was added to the wells.

P2Y15 GPCR = biological target: T2, P2Y15 GPCR (Homo sapiens, UniProt Q96P68); test: Ca2+ flux assay (ligand screening) in stably transfected P2Y15 GPCR-expressing HEK293 cells; format: cell-based; details: FIG. 2A, read-out: calcium response EC50
T2 construct: expressed in transfected cells
Method: as §1

[8] = 10 M AMP (FIG. 4A legend), read-out: Ki for blocking calcium mobilization induced by AMP
[9] = Ki for blocking calcium mobilization induced by adenosine, 10 M adenosine (FIG. 4B legend)

Cn1c(=O)c2c(ncn2C)n(C)c1=O [caffeine]
pKi (P2Y15 [1]; [8]): 5.57
pKi (P2Y15 [1]; [9]): 4.58

Nc1ncnc2c1ncn2[C@@H]1O[C@H](COP(=O)(O)CP(=O)(O)O)[C@@H](O)[C@H]1O [AMP-CP, Adenosine 5′-(α,β-methylene)diphosphate]
block of calcium mobilization induced by AMP and adenosine (P2Y15 [1]): effective in blocking

Nc1ncnc2c1ncn2[C@@H]1O[C@H](CO)[C@@H](O)[C@H]1O [adenosine]
calcium mobilization response to adenosine in nontransfected cells ([2]; nontransfected HEK293, detected only at very high adenosine concentrations): very weak response
antagonism of ^3H-AMP binding to nontransfected HEK293 cells [3]: neither AMP nor adenosine can antagonize
cyclic AMP generation in nontransfected HEK293 cells [4]: generated cyclic AMP
effect of pertussis toxin pretreatment on cyclic AMP production in response to ligand (P2Y15 [5]): not affected
cyclic AMP response to ligand alone (P2Y15 [5]): only minor responses barely above the detection limit

O=c1ccn([C@@H]2O[C@H](COP(=O)(O)OP(=O)(O)OP(=O)(O)O)[C@@H](O)[C@H]2O)c(=O)[nH]1 [UTP]
calcium mobilization in response to nucleotide [2]: mobilized calcium

CC(C)Cn1c(=O)n(C)c(=O)c2[nH]cnc21 [IBMX, 3-isobutyl-1 methylxanthine]
block of calcium mobilization induced by AMP and adenosine (P2Y15 [1]): able to block

Nc1ncnc2c1ncn2[C@@H]1O[C@H](COP(=O)(O)OP(=O)(O)OP(=O)(O)O)[C@@H](O)[C@H]1O [ATP]
calcium mobilization in response to nucleotide [2]: mobilized calcium

Cn1c(=O)c2[nH]c(-c3ccccc3)nc2n(C)c1=O [8-phenyltheophylline, 8-Phenyltheophylline]
pKi (P2Y15 [1]; [8]): 6.60
pKi (P2Y15 [1]; [9]): 6.59

Cn1c(=O)c2[nH]cnc2n(C)c1=O [theophylline]
block of calcium mobilization induced by AMP and adenosine (P2Y15 [1]): able to block

Nc1ncnc2c1ncn2[C@@H]1O[C@H](COP(=O)(O)O)[C@@H](O)[C@H]1O [AMP, Adenosine 5′-monophosphate]
antagonism of ^3H-AMP binding to nontransfected HEK293 cells [3]: neither AMP nor adenosine can antagonize
blocking ^3H-adenosine binding to nontransfected HEK293 cells ([3]; 10 μM ^3H-adenosine, FIG. 3D): little effect
cyclic AMP generation in nontransfected HEK293 cells [4]: did not respond strongly
pKi (P2Y15 [6]): 4.61
pKd (P2Y15 [7]): 4.73
pEC50 (P2Y15 [5]; in the presence of 10 μM forskolin, 30 min, FIG. 2B, read-out: generation of cyclic AMP EC50): 6.67
effect of pertussis toxin pretreatment on cyclic AMP production in response to ligand (P2Y15 [5]): not affected
cyclic AMP response to ligand alone (P2Y15 [5]): only minor responses barely above the detection limit
pEC50 (P2Y15 GPCR): 6.04
